The subject of assay [1] is thymocytes of surrenalectomised rats. Briefly: Antiglucocorticoidal activity: incorporation of tritiated uridine in thymocytes treated with dexamethasone. Type of assay: cell-based, rat. Conditions: for opposition to the dexamethasone-caused diminution of incorporation of tritiated uridine (in words) / inhibition at 1 µM / inhibition at 0.1 µM / inhibition at 0.01 µM: 5·10^-8 M dexamethasone; for inhibition at 1 µM / inhibition at 0.1 µM / inhibition at 0.01 µM: Rattus norvegicus, Thymocyte, read-out: % inhibition of the effect of Dexamethasone; for inhibition at 1 µM: product tested 10^-6 M; for inhibition at 0.1 µM: product tested 10^-7 M; for inhibition at 0.01 µM: product tested 10^-8 M. As to the method:
The technique employed was derived from the method described by Daune et al in Molecular Pharmacology, Vol. 13, 948-955 (1977) "The relationship between glucocorticold structure and effects upon thymocytes", for the thymocytes of the mouse. The thymocytes of surrenalectomised rats were incubated at 37° C. for 3 hours in a nutrient medium containing 5·10^-8 M of dexamethasone, in the presence or absence of a product to be studied at different concentrations. One added tritiated uridine, and continued the incubation for one hour. The incubates were cooled and treated with a 5% solution of trichloroacetic acid. After filtration on Whatman GF/A paper, and washing three times with a 5% trichloroacetic acid solution, the radioactivity retained by the filter was determined.

In assay [2] the target is T1, Progestogen Receptor of the Rabbit Uterus (Oryctolagus cuniculus, UniProt P06186).
T1 construct: The uteruses were removed, weighed and homogenized at 0° C; from tissue; host or cells: uterus of non-adult, estradiol-treated rabbits; high-speed supernatant of the homogenate
T1 sequence (P06186 1-930): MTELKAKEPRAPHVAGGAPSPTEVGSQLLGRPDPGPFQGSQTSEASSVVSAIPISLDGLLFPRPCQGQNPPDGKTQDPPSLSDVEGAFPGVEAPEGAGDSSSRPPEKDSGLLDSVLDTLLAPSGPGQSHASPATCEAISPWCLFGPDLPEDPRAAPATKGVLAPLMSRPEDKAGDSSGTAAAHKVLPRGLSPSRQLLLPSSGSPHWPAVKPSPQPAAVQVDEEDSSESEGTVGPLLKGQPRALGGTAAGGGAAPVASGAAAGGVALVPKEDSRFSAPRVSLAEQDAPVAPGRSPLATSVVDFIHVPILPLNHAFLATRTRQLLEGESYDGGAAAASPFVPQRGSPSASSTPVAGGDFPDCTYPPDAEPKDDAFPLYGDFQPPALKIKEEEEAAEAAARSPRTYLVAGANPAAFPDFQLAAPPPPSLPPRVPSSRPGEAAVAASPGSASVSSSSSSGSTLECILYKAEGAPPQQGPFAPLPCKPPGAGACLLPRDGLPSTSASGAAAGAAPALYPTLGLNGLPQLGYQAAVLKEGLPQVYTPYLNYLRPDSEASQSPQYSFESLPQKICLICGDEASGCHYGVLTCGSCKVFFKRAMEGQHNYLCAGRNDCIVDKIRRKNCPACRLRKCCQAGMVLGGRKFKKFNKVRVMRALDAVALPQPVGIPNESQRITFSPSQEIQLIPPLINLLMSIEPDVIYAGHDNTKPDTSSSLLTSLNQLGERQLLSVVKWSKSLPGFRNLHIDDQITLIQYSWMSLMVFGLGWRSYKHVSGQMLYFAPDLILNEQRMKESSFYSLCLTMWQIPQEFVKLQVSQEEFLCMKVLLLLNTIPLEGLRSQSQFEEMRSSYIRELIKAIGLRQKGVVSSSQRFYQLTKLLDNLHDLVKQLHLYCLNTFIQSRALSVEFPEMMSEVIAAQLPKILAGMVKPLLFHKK
Description: Relative bonding affinity (ARL), progestogen receptor of the rabbit uterus. The format is binding. The conditions noted are these: for relative bonding affinity (ARL), Progestogen: displacement of tritiated R. As to the method:
(§1) Study of the activity upon the hormonal receptors.
Non-adult rabbits of about 1 kg are given a cutaneous application of 25 μg of estradiol and 5 days after this treatment, the animals were sacrificed. The uteruses were removed, weighed and homogenized at 0° C. with the aid of a Potter polytertrafluoroethylene dish in a buffered TS solution ([…], HCl pH 7.4) (1 g of tissue per 50 ml of TS). The homogenate was then ultracentrifuged (105,000 g×90 mm) at 0° C. Aliquots of the supernatent fluid thus obtained were incubated at 0° C. for a period (t) with a constant concentration (T) of tritiated Product R (17, 21-dimethyl-19-nor-Δ^-4,9 -pregnadien-3,20-dione) in the presence of increasing concentrations (0-2500. 10^-9 M) either of R cold, or of progesterone cold, or of the product to be tested cold. The concentration of tritiated R bound (B) was then measured in each incubate by the technique of adsorbtion on dextran charcoal.
(§2) The calculation of the relative bonding affinity (ARL) was identical for all the receptors.
(§3) The 2 curves were plotted as follows: the percentage of the tritiated hormone bound B/T as a function of the logarithm of the concentration of the reference hormone cold and B/T as a function of the logarithm of the concentration of the product tested cold.
(§4) The straight line of the equation I50 =(B/T max+B/T min)/2. B/T max=percentage of the tritiated hormone bound for one incubation of this tritiated hormone at the concentration (T) was determined. B/T min=percentage of the tritiated hormone bound for one incubation of this tritiated hormone at the concentration (T) in the presence of a great excess of the cold hormone (2500·10^-9 M).
(§5) The intersections of the straight line I50 and of the curves make it possible to estimate the concentrations of the cold reference hormone (CH) and of the cold product tested (CX) which inhibits 50% of the bonding of the tritiated hormone on the receptor. The relative affinity of the bonding (ARL) of the product tested was determined by the equation [formula]

In assay [3] the target is T2, Gluoccocorticoid Receptor of the Rat Thymus (Rattus norvegicus, UniProt P06536).
T2 construct: The thymuses were removed and homogenized at 0° C; from tissue; host or cells: thymus of adrenalectomised male Sprague Dawley rats; high-speed supernatant of the homogenate
T2 sequence (P06536 1-795): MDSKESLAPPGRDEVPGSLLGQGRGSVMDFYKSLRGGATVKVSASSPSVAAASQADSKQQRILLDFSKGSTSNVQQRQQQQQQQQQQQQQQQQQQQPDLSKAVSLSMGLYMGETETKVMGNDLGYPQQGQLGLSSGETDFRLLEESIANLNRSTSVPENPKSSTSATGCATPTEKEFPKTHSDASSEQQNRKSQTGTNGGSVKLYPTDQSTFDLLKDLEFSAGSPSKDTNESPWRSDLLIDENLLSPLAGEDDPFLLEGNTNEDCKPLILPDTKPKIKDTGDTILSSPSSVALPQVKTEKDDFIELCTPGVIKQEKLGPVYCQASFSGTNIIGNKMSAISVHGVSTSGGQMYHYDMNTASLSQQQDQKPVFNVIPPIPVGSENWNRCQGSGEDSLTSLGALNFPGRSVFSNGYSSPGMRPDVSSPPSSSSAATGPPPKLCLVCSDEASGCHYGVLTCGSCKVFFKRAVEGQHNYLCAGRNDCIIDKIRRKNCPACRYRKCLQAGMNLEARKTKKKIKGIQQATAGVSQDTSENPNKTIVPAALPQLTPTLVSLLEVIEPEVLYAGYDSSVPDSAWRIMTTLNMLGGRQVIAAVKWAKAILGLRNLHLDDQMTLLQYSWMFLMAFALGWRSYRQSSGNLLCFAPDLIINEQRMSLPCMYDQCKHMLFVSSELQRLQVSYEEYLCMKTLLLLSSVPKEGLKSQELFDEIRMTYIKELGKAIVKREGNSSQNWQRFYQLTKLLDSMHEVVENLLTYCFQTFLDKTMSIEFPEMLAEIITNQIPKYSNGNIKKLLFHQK
Briefly: Relative bonding affinity (ARL), glucocorticoid receptor of the rat thymus. Conditions: for relative bonding affinity (ARL), Glucocorticoid: displacement of tritiated dexamethasone. Type of assay: binding, rat (male Sprague Dawley EOPS). As for the experimental part:
as §1
Male Sprague Dawley EOPS rats of 160 to 200 g were surrenalectomised and 4 to 8 days after this ablation, the animals were sacrificed. The thymuses were removed and homogenized at 0° C. in a 10 mM Tris, 0.25M saccharose, 2 mM dithiothreitol, HCl pH 7.4 buffer with the aid of a Potter polytetrafluoroethylene dish (1 g of tissue per 10 ml of TS). The homogenate was then ultracentrifuged (105,000×90 mn) at 0° C. Aliquots of the supernatent fluid thus obtained were incubated at 0° for a period (t) with a constant concentration (T) of tritiated dexamethasone in the presence of increasing concentrations (0-2500. 10^-9 M) either of cold dexamethasone, or of cold product to be tested. The concentration of tritiated dexamethasone bound (B) was then measured in each incubate by the technique of adsorption on dextran charcoal.
as §2, §3, §4, §5

For assay [4], the system named is gestation in the rat. Briefly: Abortifacient activity in the rat. Type of assay: in vivo. The conditions noted are these: 3 mg/kg orally on Day D 9 of gestation; sacrificed 72 hours after treatment. As to the method:
Day D 1 of gestation was determined by the presence of spermatozoids in the vaginal smears and on Day D 9 of gestation, the product was administered orally in suspension in carboxymethyl cellulose containing 0.5% of Tween. The animals were sacrificed 72 hours after the treatment and the uterus was examined to determine the state of gestation.

[5] abbreviates: 37° C., 3 hours + 1 hour tritiated uridine.

Read-outs that look alike come from different tables or passages of the source.

Consider `C[C@@H]1C[C@H]2[C@@H]3CCC4=CC(=O)C=C[C@]4(C)[C@@]3(F)[C@@H](O)C[C@]2(C)[C@@]1(O)C(=O)CO` [dexamethasone, reference compound], for which the “incorporation of tritiated uridine (in words)” value in assay [1] (effect of glucocorticoid alone) was “cause a diminution of the incorporation of tritiated uridine”.

Regarding `C#Cc1ccc([C@H]2C[C@@]3(C)[C@@H](CC[C@@]3(O)C#CCl)[C@@H]3CCC4=CC(=O)CCC4=C32)cc1` [Example 5, 17α-(chloroethynyl)-11β-(4-ethynylphenyl)-Δ^4,9-estradien-17β-ol-3-one], the “affinity for the progestogen receptor (in words)” value in assay [2] is “very marked affinity”. Further, the “relative bonding affinity (ARL), Progestogen” value in assay [2] (time of incubation at 0°: 2H) turned out to be 51; in assay [2] (time of incubation at 0°: 24H) it was 325. For the same compound, in assay [3], the “affinity for the glucocorticoid receptor (in words)” value is recorded as “very marked affinity”. Also, the results for the “relative bonding affinity (ARL), Glucocorticoid” value in assay [3] (time of incubation at 0°: 4H) and in assay [3] (time of incubation at 0°: 24H) were 84 and 153, respectively. For the same compound, the “opposition to the dexamethasone-caused diminution of incorporation of tritiated uridine (in words)” value (shortened to “opposition”) in assay [1] is recorded as “oppose this effect”. Also, the inhibition (in general, the relative decrease from the control value, in per cent) at 1 µM in assay [1] (symbol explained in footnote) came out at 100%. Also, the inhibition at 0.1 µM in assay [1] (setting [5]) was 84%. The inhibition at 0.01 µM in assay [1] (setting [5]) turned out to be 47%. Besides, the “abortion (state of gestation)” value in assay [4] was “complete abortion in all the animals”.

On to `C#Cc1ccc([C@H]2C[C@@]3(C)[C@@H](CC[C@@]3(O)C#CC)[C@@H]3CCC4=CC(=O)CCC4=C32)cc1` [Example 3, 11β-(4-ethynylphenyl)-17α-(1-propynyl)-Δ^4,9-estradien-17β-ol-3-one], for which, in assay [2], the “affinity for the progestogen receptor (in words)” value was “very marked affinity”. Moreover, the figures for the “relative bonding affinity (ARL), Progestogen” value in assay [2] (time of incubation at 0°: 2H) and in assay [2] (time of incubation at 0°: 24H) were 44 and 167, respectively. Further, the “affinity for the glucocorticoid receptor (in words)” value in assay [3] is “very marked affinity”. Besides, the “relative bonding affinity (ARL), Glucocorticoid” value in assay [3] (time of incubation at 0°: 4H) was 107; in assay [3] (time of incubation at 0°: 24H), 124. Also, in assay [4], the “abortion (state of gestation)” value was “complete abortion in all the animals”.

As for `C#Cc1ccc([C@H]2C[C@@]3(C)[C@@H](CC[C@@]3(O)CC=C)[C@@H]3CCC4=CC(=O)CCC4=C32)cc1` [Example 4, 11β-(4-ethynylphenyl)-17α-allyl-Δ^4,9-estradien-17β-ol-3-one], in assay [2], the “affinity for the progestogen receptor (in words)” value is recorded as “very marked affinity”. Also, the results for the “relative bonding affinity (ARL), Progestogen” value in assay [2] (time of incubation at 0°: 2H) and in assay [2] (time of incubation at 0°: 24H) were 41 and 124, respectively. In assay [3], the “affinity for the glucocorticoid receptor (in words)” value was “very marked affinity”. Moreover, the entries for the “relative bonding affinity (ARL), Glucocorticoid” value in assay [3] (time of incubation at 0°: 4H) and in assay [3] (time of incubation at 0°: 24H) were 65 and 57, respectively. Moreover, the “opposition” value in assay [1] was “oppose this effect”. In addition, in assay [1] (setting [5]), the inhibition at 1 µM is 99%. Besides, in assay [1] (setting [5]), the inhibition at 0.1 µM is 71%. For the same compound, the inhibition at 0.01 µM in assay [1] (setting [5]) was determined as 46%. Also, in assay [4], the “abortion (state of gestation)” value is listed as “complete abortion in all the animals”.

As for `C#Cc1ccc([C@H]2C[C@@]3(C)[C@@H](CC[C@@]3(O)C#CCl)[C@@H]3CCC4=CC(=O)CC[C@]45O[C@]235)cc1` [Example 8, 17α-chloroethynyl-9α,10α-epoxy-11β-(4-ethynylphenyl)-17-Δ^4-estraen-17β-ol-3-one], the “affinity for the progestogen receptor (in words)” value in assay [2] is “very marked affinity”. In assay [2] (time of incubation at 0°: 2H), the “relative bonding affinity (ARL), Progestogen” value was determined as 38. Besides, the “relative bonding affinity (ARL), Progestogen” value in assay [2] (time of incubation at 0°: 24H) is on record as 285. Further, the “affinity for the glucocorticoid receptor (in words)” value in assay [3] is “very marked affinity”. In addition, the “relative bonding affinity (ARL), Glucocorticoid” value in assay [3] (time of incubation at 0°: 4H) worked out at 175. Further, in assay [3] (time of incubation at 0°: 24H), the “relative bonding affinity (ARL), Glucocorticoid” value was determined as 233. Also, the “opposition” value in assay [1] is recorded as “oppose this effect”. In assay [1] (setting [5]), the inhibition at 1 µM was found to be 77%, the inhibition at 0.1 µM was 37% and the inhibition at 0.01 µM stood at 7%. Also, the “abortion (state of gestation)” value in assay [4] is “complete abortion in all the animals”.

For the origin of these results see patent US4912097A, “Novel 11 β-alkynylphenyl-10-nor-steroids” (Roussel Uclaf, priority 1986, dated 1990).
